Assay results as given in patent publication US6888015B2, “Sphingolipid synthesis inhibitor” (Japan Science and Technology Agency, priority 2001, dated 2005).

Assays:
[1] = system: de novo synthesis of SM in CHO cells; assay: Metabolic labeling of lipids with [14C]serine in CHO cells; format: cell-based, Chinese hamster; details: for inhibition of de novo SM synthesis (stereoisomers): [14C]serine labeling (FIG. 6B)
Protocol: (§1) CHO cells are cultured in Ham's F12 medium supplemented with 10% newborn bovine serum (NBS), penicillin G (100 unit/mL) and streptomycin sulfate (100 μg/mL) at the temperature of 33° C. and 5% CO2 atmosphere. In the case of HeLa cells, Dulbecco's minimum essential medium is used as a base medium instead of Ham's F12 medium.
Further, Nutridoma medium (Ham's F12 medium containing 1% Nutridoma-SP, product of Roche Molecular Biochemicals, and 25 μg/mL of gentamicin) is used as a serum-free medium. In the case when the medium is supplemented by DMSO or drugs dissolved in DMSO, the concentration of DMSO in culture medium is adjusted to be 0.01%.
CHO cells are seeded at the density of 1.0×10^6 cell in 5 mL of F12 medium containing 10% NBS, by per 60-mm dish, and cultured at 33° C. overnight. Then, the medium is changed to 1.5 mL of Nutridoma medium if necessary, various drugs are added and incubated at 4° C. for 15 minutes. Then, after addition of [^14C] serine (0.75 μCi) or [^14 C] choline (1.0 μCi) to the medium, cells were incubated at 33° C. for various periods of time.
Cells are washed twice with 2 mL of cold phosphate-buffered saline (PBS), and lysed with 900 μL of 0.1% sodium dodecyl sulfate (SDS). Then, 800 μL and 20 μL of lysate are used for lipid extraction and determination of protein concentration, respectively.
For the analysis of lipids labeled with [C^14C] serine, lipids were separated by TLC with a solvent consisting of methylacetate/n-propanol/chloroform/methanol/0.25%KCl (25:25:25:10:9, volume ratio) as a developing solvent.
Radioactive lipid separated on the TLC plates are detected with image analyzer depicted above. After the collection of gels from TLC plates by scraping, the radioactivity of each lipid is determined by liquid scintillation counting and normalized to the protein concentration of cells.

[2] = system: protein trafficking from the ER to the Golgi apparatus; assay: Glycoprotein (PLAP-HA) transport from the ER to the Golgi apparatus; format: cell-based, Chinese hamster; details: 2.5 μM; CHO-K1 transformant expressing PLAP-HA (FIG. 7)
[3] = system: synthesis of SM in HeLa cells; assay: De novo synthesis of SM in HeLa cells; format: cell-based; details: FIG. 6D
Protocol: as §1

SMILES	formation of [14C]SM ([1]; 2.5 μM drug, [14C]serine labeling, CHO cells (FIG. 1B))	maturation rate of newly synthesized PLAP-HA to an EndoH-resistant form [2]	synthesis of SM in HeLa cells [3]	inhibitory activity on the Cer-to-SM conversion among four stereoisomers ([1]; FIG. 6B, 6C)	inhibition of de novo SM synthesis (stereoisomers) [1]
CCCCCCCCCCCCCCCC(=O)NC(CO)CC(O)c1ccccc1 (stereo not drawn) [HPA-16]	less than that of HPA-12				
CCCCCCCCCCCC(=O)N[C@@H](CO)C[C@@H](O)c1ccccc1 [(1R, 3R)-HPA-12]		not affected	inhibits	strongest inhibitory activity	strongly
CCCCCCCCCCCC(=O)N[C@H](CO)C[C@H](O)c1ccccc1 [(1S, 3S)-HPA-12]					moderately
